Reference: patent US6500840B2, “Quinuclidine-substituted heteroaryl moieties for treatment of disease” (Pharmacia & Upjohn Company, priority 2000, dated 2002)
pKi: −log10 of the molar value. Several values for one entry are separate records, joined by “and”; a condition that tells them apart may be missing. Equal entries are not always repeated. Structures can show the parent of a compound that is named as a salt.

Biological target: α7 nAChR (Rattus norvegicus, UniProt Q05941)
Assay: [3H]-MLA competition binding assay, rat brain membranes
Settings: Ki, inhibition of [3H]-MLA binding (3.0 to 4.0 nM), Sprague-Dawley rat whole brain minus cerebellum homogenate, 1 hour at 25° C
Procedure: Membrane Preparation. Male Sprague-Dawley rats (300-350 g) are sacrificed by decapitation and the brains (whole brain minus cerebellum) are dissected quickly, weighed and homogenized in 9 volumes/g wet weight of ice-cold 0.32 M sucrose using a rotating pestle on setting 50 (10 up and down strokes). The homogenate is centrifuged at 1,000×g for 10 minutes at 4° C. The supernatant is collected and centrifuged at 20,000×g for 20 minutes at 4° C. The resulting pellet is resuspended to a protein concentration of 1-8 mg/mL. Aliquots of 5 mL homogenate are frozen at −80° C. until needed for the assay.
Binding Assay. […] Filters are pre-soaked in 50 mm Tris HCl pH 7.0-0.05% polyethylenimine. The filters are rapidly washed two times with 5 mL aliquots of cold 0.9% saline and then counted for radioactivity by liquid
Data Analysis. […] Hill coefficients were obtained using non-linear regression (GraphPad Prism sigmoidal dose-response with variable slope).

Chain of α7 nAChR (Q05941 23-502): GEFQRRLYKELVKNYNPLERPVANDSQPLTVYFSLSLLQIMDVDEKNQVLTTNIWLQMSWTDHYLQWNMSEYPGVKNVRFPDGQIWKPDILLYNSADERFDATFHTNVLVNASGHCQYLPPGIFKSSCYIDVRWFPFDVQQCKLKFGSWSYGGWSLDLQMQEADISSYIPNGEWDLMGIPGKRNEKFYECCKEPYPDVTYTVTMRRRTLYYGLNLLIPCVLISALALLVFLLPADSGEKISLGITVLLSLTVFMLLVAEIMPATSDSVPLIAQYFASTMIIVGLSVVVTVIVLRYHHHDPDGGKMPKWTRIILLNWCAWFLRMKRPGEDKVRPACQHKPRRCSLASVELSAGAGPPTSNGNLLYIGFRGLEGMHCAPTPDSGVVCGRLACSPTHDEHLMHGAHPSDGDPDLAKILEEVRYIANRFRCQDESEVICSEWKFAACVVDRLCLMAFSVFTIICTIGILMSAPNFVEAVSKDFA

SMILES	pKi
O=C(N[C@H]1CN2CCC1CC2)c1ncc(-c2ccccc2Cl)o1 [Example 86, N-[(3R)-1-azabicyclo[2.2.2]oct-3-yl]-5-(2-chlorophenyl)-1,3-oxazole-2-carboxamide 4-methylbenzenesulfonate]	7.40 to 7.52
N#Cc1cccc(-c2cnc(C(=O)N[C@H]3CN4CCC3CC4)o2)c1 [Example 87, N-[(3R)-1-azabicyclo[2.2.2]oct-3-yl]-5-(3-cyanophenyl)-1,3-oxazole-2-carboxamide 4-methylbenzenesulfonate]	6.82 to 6.89
O=C(N[C@H]1CN2CCC1CC2)c1ncc(-c2ccc(Br)cc2)o1 [Example 88, N-[(3R)-1-azabicyclo[2.2.2]oct-3-yl]-5-(4-bromophenyl)-1,3-oxazole-2-carboxamide 4-methylbenzenesulfonate]	7.10 to 7.19
Cc1nc(C(=O)N[C@H]2CN3CCC2CC3)sc1-c1ccccc1 [Example 89, N-[(3R)-1-Azabicyclo[2.2.2]oct-3-yl]-4-methyl-5-phenyl-1,3-thiazole-2-carboxamide 4-Methylbenzenesulfonate]	6.40 to 6.51
O=C(N[C@H]1CN2CCC1CC2)c1ncc(-c2ccccc2)s1 [Example 90, N-[(3R)-1-azabicyclo[2.2.2]oct-3-yl]-5-phenyl-1,3-thiazole-2-carboxamide]	6.82 to 7.10
O=C(N[C@H]1CN2CCC1CC2)c1ncc(-c2cccc([N+](=O)[O-])c2)s1 [Example 92, N-[(3R)-1-azabicyclo[2.2.2]oct-3-yl]-5-(3-nitrophenyl)-1,3-thiazole-2-carboxamide 4-medhylbenzenesulfonate]	6.43 to 6.72
COc1cccc(-c2cnc(C(=O)N[C@H]3CN4CCC3CC4)s2)c1 [Example 93, N-[(3R)-1-azabicyclo[2.2.2]oct-3-yl]-5-(3-methoxyphenyl)-1,3-thiazole-2-carboxamide 4-methylbenzenesulfonate]	7.35 to 7.40
O=C(N[C@H]1CN2CCC1CC2)c1ncc(-c2ccccc2Cl)s1 [Example 94, N-[(3R)-1-azabicyclo[2.2.2]oct-3-yl]-5-(2-chlorophenyl)-1,3-thiazole-2-carboxamide 4-methylbenzenesulfonate]	6.90
O=C(N[C@H]1CN2CCC1CC2)c1ncc(-c2ccc(F)cc2)s1 [Example 95, N-[(3R)-1-azabicyclo[2.2.2]oct-3-yl]-5-(4-fluorophenyl)-1,3-thiazole-2-carboxamide 4-methylbenzenesulfonate]	5.96
COc1ccccc1-c1cnc(C(=O)N[C@H]2CN3CCC2CC3)s1 [Example 96, N-[(3R)-1-azabicyclo[2.2.2]oct-3-yl]-5-(2-methoxyphenyl)-1,3-thiazole-2-carboxamide 4-methylbenzenesulfonate]	6.96 to 7.02
Cc1cnc(C(=O)N[C@H]2CN3CCC2CC3)s1 [Example 98, N-[(3R)-1-azabicyclo[2.2.2]oct-3-yl]-5-methyl-1,3-thiazole-2-carboxamide 4-methylbenzenesulfonate]	7.10 to 7.30
O=C(N[C@H]1CN2CCC1CC2)c1ncc(-c2cccc(Cl)c2)s1 [Example 99, N-[(3R)-1-azabicyclo[2.2.2]oct-3-yl]-5-(3-chlorophenyl)-1,3-thiazole-2-carboxamide 4-methylbenzenesulfonate]	6.49 to 6.51
O=C(N[C@H]1CN2CCC1CC2)c1ccc(-c2ccccc2)o1 [Example 103, N-[(3R)-1-Azabicyclo[2.2.2]oct-3-yl]-5-phenyl-furan-2-carboxamide 4-Methylbenzenesulfonate]	7.30 to 7.77
O=C(N[C@H]1CN2CCC1CC2)c1ccc(-c2ccccc2Cl)o1 [Example 104, N-((3R)-1-azabicyclo[2.2.2]oct-3-yl]-5-(2-chlorophenyl)-furan-2-carboxamide toluene sulfonate]	6.89 to 7.70 and 7.12
O=C(N[C@H]1CN2CCC1CC2)c1ccc(-c2cccc(Cl)c2)o1 [Example 105, N-[(3R)-1-azabicyclo[2.2.2]oct-3-yl]-5-(3-chlorophenyl)-furan-2-carboxamide toluene sulfonate]	7.05
O=C(N[C@H]1CN2CCC1CC2)c1ccc(-c2ccc(Cl)cc2)o1 [Example 106, N-[(3R)-1-azabicyclo[2.2.2]oct-3-yl]-5-(4-chlorophenyl)-furan-2-carboxamide fumarate]	6.72 to 7.82 and 6.96 to 7.66
O=C(N[C@H]1CN2CCC1CC2)c1ccc(-c2ccccc2C(F)(F)F)o1 [Example 108, N-[(3R)-1-azabicyclo[2.2.2]oct-3-yl]-5-[2-(trifluoromethyl)-phenyl]-furan-2-carboxamide fumarate]	6.25 to 6.38
O=C(N[C@H]1CN2CCC1CC2)c1ccc(-c2cccc(C(F)(F)F)c2)o1 [Example 109, N-[(3R)-1-azabicyclo[2.2.2]oct-3-yl]-5-[3-(trifluoromethyl)-phenyl]-furan-2-carboxamide fumarate]	8.22 to 8.82
O=C(N[C@H]1CN2CCC1CC2)c1ccc(-c2ccccc2[N+](=O)[O-])o1 [Example 110, N-[(3R)-1-azabicyclo[2.2.2]oct-3-yl]-5-(2-nitrophenyl)-furan-2-carboxamide 4-methylbenzenesulfonate]	6.72 to 8.40

SMILES	pKi
O=C(N[C@H]1CN2CCC1CC2)c1ccc(-c2ccc([N+](=O)[O-])cc2)o1 [Example 112, N-[(3R)-1-azabicyclo[2.2.2]oct-3-yl]-5-(4-nitrophenyl)-furan-2-carboxamide 4-methylbenzenesulfonate]	7.62 to 8.30
O=C(N[C@H]1CN2CCC1CC2)c1ccc(-c2ccccc2F)o1 [Example 113, N-[(3R)-1-azabicyclo[2.2.2]oct-3-yl]-5-(2-fluorophenyl)-furan-2-carboxamide 4-methylbenzenesulfonate]	6.90 to 7.05
O=C(N[C@H]1CN2CCC1CC2)c1ccc(-c2cccc(F)c2)o1 [Example 114, N-[(3R)-1-azabicyclo[2.2.2]oct-3-yl]-5-(3-fluorophenyl)-furan-2-carboxamide 4-methylbenzenesulfonate]	6.87
O=C(N[C@H]1CN2CCC1CC2)c1ccc(-c2cc(F)ccc2F)o1 [Example 117, N-[(3R)-1-azabicyclo[2.2.2]oct-3-yl]-5-(2,5-difluorophenyl)-furan-2-carboxamide hydrochloride]	5.73
COc1ccccc1-c1ccc(C(=O)N[C@H]2CN3CCC2CC3)o1 [Example 118, N-[(3R)-1-azabicyclo[2.2.2]oct-3-yl]-5-(2-methoxyphenyl)-furan-2-carboxamide 4-methylbenzenesulfonate]	7.16 to 7.35
COc1cccc(-c2ccc(C(=O)N[C@H]3CN4CCC3CC4)o2)c1 [Example 119, N-[(3R)-1-azabicyclo[2.2.2]oct-3-yl]-5-(3-methoxyphenyl)-furan-2-carboxamide 4-methylbenzenesulfonate]	6.25 to 6.38
O=C(N[C@H]1CN2CCC1CC2)c1ccc(-c2cccc(OC(F)(F)F)c2)o1 [Example 120, N-[(3R)-1-azabicyclo[2.2.2]oct-3-yl]-5-[3-(trifluoromethoxy)phenyl]-furan-2-carboxamide 4-methylbenzenesulfonate]	5.98
Cc1cc(C(=O)N[C@H]2CN3CCC2CC3)oc1C [Example 128, N-[(3R)-1-azabicyclo[2.2.2]oct-3-yl]-4,5-dimethyl-furan-2-carboxamide hydrochloride]	8.15 to 8.22
Cc1ccc(-c2ccc(C(=O)N[C@H]3CN4CCC3CC4)o2)c([N+](=O)[O-])c1 [Example 130, N-[(3R)-1-azabicyclo[2.2.2]oct-3-yl]-5-(4-methyl-2-nitrophenyl)-furan-2-carboxamide hydrochloride]	6.25 to 6.38 and 6.39 to 6.48
O=C(N[C@H]1CN2CCC1CC2)c1ccc(-c2ccc(F)c(F)c2)o1 [Example 132, N-[(3R)-1-azabicyclo[2.2.2]oct-3-yl]-5-(3,4-difluorophenyl)-furan-2-carboxamide hydrochloride]	5.68 to 6.06
O=C(N[C@H]1CN2CCC1CC2)c1ccc(-c2cc(F)cc(F)c2)o1 [Example 133, N-[(3R)-1-azabicyclo[2.2.2]oct-3-yl]-5-(3,5-difluorophenyl)-furan-2-carboxamide hydrochloride]	7.15 to 7.52
COc1ccc(-c2ccc(C(=O)N[C@H]3CN4CCC3CC4)o2)cc1 [Example 134, N-[(3R)-1-azabicyclo[2.2.2]oct-3-yl]-5-(4-methoxy-phenyl)-furan-2-carboxamide hydrochloride]	7.00 to 7.22
Cc1ccccc1-c1ccc(C(=O)N[C@H]2CN3CCC2CC3)o1 [Example 135, N-[(3R)-1-azabicyclo[2.2.2]oct-3-yl]-5-(2-methylphenyl)-furan-2-carboxamide 4-methylbenzenesulfonate]	7.35 to 7.80
Cc1cccc(-c2ccc(C(=O)N[C@H]3CN4CCC3CC4)o2)c1 [Example 136, N-[(3R)-1-azabicyclo[2.2.2]oct-3-yl]-5-(3-methylphenyl)-furan-2-carboxamide 4-methylbenzenesulfonate]	7.70 to 7.82
O=C(N[C@H]1CN2CCC1CC2)c1ccc(-c2ccccc2OC(F)(F)F)o1 [Example 138, N-[(3R)-1-azabicyclo[2.2.2]oct-3-yl]-5-[2-(trifluoromethoxy)phenyl]-furan-2-carboxamide 4-methylbenzenesulfonate]	6.23 to 6.28
CC(C)(C)c1ccc(-c2ccc(C(=O)N[C@H]3CN4CCC3CC4)o2)cc1 [Example 140, N-[(3R)-1-azabicyclo[2.2.2]oct-3-yl]-5-(4-tert-butylphenyl)-furan-2-carboxamide 4-methylbenzenesulfonate]	7.19 to 7.46
O=C(N[C@H]1CN2CCC1CC2)c1ccc(-c2cc3ccccc3s2)o1 [Example 141, N-[(3R)-1-azabicyclo[2.2.2]oct-3-yl]-5-(1-benzothien-2-yl)-furan-2-carboxamide 4-methylbenzenesulfonate]	6.56 to 6.59
O=C(N[C@H]1CN2CCC1CC2)c1ccc(-c2cc3ccccc3o2)o1 [Example 146, N-[(3R)-1-azabicyclo[2.2.2]oct-3-yl]-5-(1-benzofuran-2-yl)-furan-2-carboxamide 4-methylbenzenesulfonate]	6.85 to 7.46
Nc1ccccc1-c1ccc(C(=O)N[C@H]2CN3CCC2CC3)o1 [Example 147, 5-(2-Aminophenyl)-N-[(3R)-1-azabicyclo[2.2.2]oct-3-yl]-furan-2-carboxamide bis(4-Methylbenzenesulfonate)]	8.52 to 8.70
